PMC12371487, “Phenylalkyl Acetophenones and Anacardic Acids from Knema oblongifolia with Synthetic Analogues as Anti-infectives and Antibacterial Agents” (ACS Bio & Med Chem Au, 2025)
Converted amounts (≈) assume the structure as drawn. “And” between values parts separate entries of the source, which are not always exact repeats. Equal entries are not always repeated. Where two headings read alike, the source gives them in different places.

Columns and labels:
Type in all cases: cell-based
[1] = tested on: Staphylococcus aureus (Sa) Newman strain; assay: MIC determination in Mueller-Hinton broth (CLSI) on Sa; conditions: for MIC: Staphylococcus aureus, NEWMAN, read-out: MIC on Sa
Protocol: MICs were determined in Mueller–Hinton (MH) broth according to CLSI guidelines and were repeated at least on three different occasions.
The Newman strain ofS. aureus and the UCBPP-PA14 strain ofP. aeruginosa were used in this study.

[2] = tested on: Mycobacterium marinum (Mm) in infection of Dictyostelium discoideum; assay: Dd-Mm infection assay: intracellular Mm growth (luminescence); conditions: Mm inside Dd, luminescence AUC over 72 h at 25 °C; 6-concentration curve, top 100 μM, 1:3 steps; IC50 interpolated
Protocol: (§1) Plant extracts, fractions, or isolated compounds were stored at −20 °C and wrapped in aluminum foil if necessary. All manipulations with extracts, fractions, or compounds were performed under a sterile hood. Extracts, fractions, and compounds were resuspended throughout in DMSO to best solubilize extracts with diverse constituents. Extracts, fractions, or compounds were added to the assay plate in a 1:100 dilution. Assay solutions of extracts, fractions, and compounds were prepared in 96-well plates, stored at −20 °C, and thawed before the experiment at room temperature or warmer with or without shaking/vortexing to obtain a clear assay solution. Extracts were tested at 25 μg/mL and purified compounds in a dose–response curve of 6 concentrations with 100 μM being the top concentration and a 1:3 dilution step between each testing concentration. Since fractions were not weighed individually, the injection mass was used to calculate an average mass per fraction and thus a nominal mass concentration. Fractions were tested at a nominal concentration of 10 μg/mL.
(§2) As described in Nitschke et al. and Mottet et al., Dd Ax2(ka) expressing mCherry from the act5 chromosomal locus was infected with Mm M strain expressing the lux operon (luxCDABE) , by spinoculation.
(§3) Briefly, the day before the experiment, Mm was cultivated in 7H9 broth (Becton Dickinson, Difco Middlebrook 7H9) supplemented with 10% OADC (Becton Dickinson) and 0.05% tyloxapol (Sigma-Aldrich) and 50 μg/mL kanamycin at 32 °C overnight with continuous shaking. Additionally, the day before the experiment, 10^7 amoebae were plated in HL5-C in a 10 cm Petri dish (Falcon). On the day of the experiment, a volume of the Mm culture corresponding to a multiplicity of infection of 25 with respect to the number of amoebae in the Petri dish was added to the semiconfluent amoebae monolayer. Subsequently, the Petri dishes were centrifuged twice at 500g, as described in Mottet et al. To remove extracellular bacteria, dishes were rinsed with fresh HL5-C, and the infected cell population was resuspended in HL5-C with 5 U/mL penicillin and 5 μg/mL streptomycin (Gibco) to inhibit the extracellular growth of bacteria during the course of the experiment.
(§4) For testing fractions and purified compounds, 20 μL of infected cell suspension was plated into each well of a 384-well plate (Interchim FP-BA8240) to an effective cell number of 1 × 10^4 cells per well. Fractions or compounds including a vehicle control (0.3% DMSO final concentration) and a positive control (rifabutin, 10 μM final concentration) were added using an electronic multipipette (Sartorius). Subsequently, the well plates were sealed with a gas impermeable membrane (H769.1, Carl Roth), briefly centrifuged, and intracellular bacterial growth was monitored using an Agilent BioTek H1 plate reader and an Agilent BioTek BioStack plate stacker by recording luminescence over 72 h at 25 °C with readings taken every hour. Fluorescence was also recorded to monitor amoeba growth.
(§5) For both assays, growth curves were obtained by measuring the luminescence and fluorescence as a proxy for bacterial growth and host growth, respectively, for 72 h with time-points taken every hour. The “normalized residual growth” was computed by calculating the area under the curve (AUC, trapezoid method) and normalizing it to the vehicle control (0.3% DMSO, set at 1) and a baseline curve (set at 0). The baseline curve was calculated by taking the median of the first measurement of all wells in a plate and extrapolating it over the complete time course. The threshold for hit detection was arbitrarily fixed at a cutoff of normalized residual growth ≤0.5. Normalized values were averaged over technical and biological replicates (all experiments on isolated compounds have at least n = 3 and N = 3, whereas the primary extract screening and microfractions testing had values of n = 1 and N = 3). […]

[3] = tested on: Dictyostelium discoideum (Dd) in infection; assay: Dd-Mm infection assay: host amoeba growth (fluorescence); conditions: infected Dd, fluorescence AUC over 72 h at 25 °C, 6-concentration curve, top 100 μM, 1:3 steps, IC50 interpolated
Protocol: as §1, §2, §3, §4, §5

[4] = tested on: Mycobacterium marinum (Mm) in broth; assay: Mm growth in broth (antibiotic assay, luminescence); conditions: 72 h; for IC50: read-out: IC50 on Mm in broth
Protocol: as §1, with “Extracts, fractions, and compounds were resuspended throughout in DMSO to best solubilize extracts with diverse constituents.” left out
For testing bacteria in broth, the preculture was diluted to a bacterial density of 3.75 × 10^5 bacteria per mL in 7H9 medium. Plating bacteria and compounds or fractions was performed analogously to the infection assay described above. Bacteria growth was monitored with the Agilent BioTek H1 plate reader by recording luminescence at 32 °C.
For both assays, growth curves were obtained by measuring the luminescence and fluorescence as a proxy for bacterial growth and host growth, respectively, for 72 h with time-points taken every hour. The “normalized residual growth” was computed by calculating the area under the curve (AUC, trapezoid method) and normalizing it to the vehicle control (0.3% DMSO, set at 1) and a baseline curve (set at 0). The baseline curve was calculated by taking the median of the first measurement of all wells in a plate and extrapolating it over the complete time course. The threshold for hit detection was arbitrarily fixed at a cutoff of normalized residual growth ≤0.5.
This procedure was also applied to screening extracts with slight modifications. The day before the experiment we preplated 10 μL of HL5-C using a dispenser (Thermo Multidrop), subsequently we preplated 2.2 μL of dissolved extracts from 96-well plates into quadrants 1, 2, and 3 of 384-well plates, whereas quadrant 4 was used for positive and vehicle controls. Preplating of extracts was performed using a liquid handler (Agilent Bravo). In total, 24 extract plates were distributed in triplicate into […] 384-well plates, amounting to 24 assay plates. The prepared plates were sealed and stored at 4 °C overnight. On the day of the experiment, nine 10 cm Petri dishes were infected (as described before) and grouped into three pools. The cell suspension was adjusted to 10^6 cells/mL, and 10 μL was plated into the 24 assay plates, resulting in 10^4 cells per well, as used for conventional infection experiments. Plates were sealed and placed in the plate stacker that supplied the plate reader. The same procedure was used to screen the same extracts on Mm in a broth. For both assays, the first time points and a time point after 72 h were recorded. Subsequently, we normalized the end point, first with the median of the full assay plate at the first time point and second with the end point of the vehicle controls in the respective assay plate.
For IC50 estimation, we used a rudimentary approach of interpolating the sample concentration between the two normalized residual growth values, which were closest to a value of 0.5.

[5] = Mm in 7H9 broth, luminescence at 32 °C, IC50 interpolated

Compound | MIC on Sa ([1]; Mueller-Hinton broth, CLSI) | IC50 [2] | IC50 [3] | IC50 [4, 5] | IC50 on Mm in broth [4, 5] | IC50 ([3]; Dictyostelium discoideum) | MIC ([1]; Mueller-Hinton broth, CLSI) | IC50 on Mm in infection [2] | IC50 on Dd in infection [3] | IC50 ([4]; Mycobacterium marinum) | MIC [1]
2,4-Dihydroxychalcone [Compound 14] | 32 mg·L–1 | 2.47 µM | 7.41 µM | 66.7 µM | – | – | – | – | – | – | –
3,5-Dichloro-2,4-dihydroxychalcone [Compound 23] | 4 μg·mL^–1 and 4 mg·L–1 | 1.76 µM | 1.76 µM | 47.6 µM | – | – | – | – | – | – | –
3-Bromo-2,4-dihydroxychalcone [Compound 24] | 64 mg·L–1 | 2.47 µM | 2.47 µM | – | not active | – | – | – | – | – | –
3-Chloro-2,4-dihydroxychalcone [Compound 21] | 32–64 mg·L–1 | 1.76 µM | 0.59 µM | 47.6 µM | – | – | – | – | – | – | –
5-Bromo-2,4-dihydroxychalcone [Compound 25] | not active | 0.82 µM | 0.82 µM | 66.7 µM | – | – | – | – | – | – | –
5-Chloro-2,4-dihydroxychalcone [Compound 22] | 32 μg·mL^–1 and 32 mg·L–1 | 1.76 µM | 1.76 µM | 47.6 µM | – | – | – | – | – | – | –
CC(=O)c1c(O)cc(O)cc1CCCCc1ccc2c(c1)OCO2 [Compound 1, Knemolone A] | Not active | 22.2 µM | – | – | Not active | 22.2 µM | – | – | – | – | –
CC(=O)c1c(O)cc(O)cc1CCCCc1ccccc1 [Compound 2, Knemolone B] | – | 22.2 µM | – | – | Not active | 22.2 µM | 32 µg/mL (≈ 113 µM) | – | – | – | –
O=C(O)c1c(O)cccc1CCCCc1ccc2c(c1)OCO2 [Compound 3, Knemolic acid A] | – | 66.7 µM | – | – | Not active | 66.7 µM | 8 µg/mL (≈ 25.5 µM) | – | – | – | –
CC(=O)c1c(O)cc(O)cc1CCCCCCc1ccccc1 [Compound 4, Knemolone C] | 4 μg·mL^–1 | 22.2 µM | – | – | not active | 22.2 µM | 4 µg/mL (≈ 12.8 µM) | – | – | – | –
CCCCCCCCCc1cc(O)cc(O)c1C(C)=O [Compound 5, Knemolone D] | – | – | – | – | Not active | 22.2 µM | 2 µg/mL (≈ 7.18 µM) | Not active | – | – | –
O=C(O)c1c(O)cccc1CCCCCCc1ccc2c(c1)OCO2 [Compound 6, Knemolic acid B] | – | 7.41 µM | – | – | Not active | 7.41 µM | 8 µg/mL (≈ 23.4 µM) | – | – | – | –
O=C(O)c1c(O)cccc1CCCCCCc1ccccc1 [Compound 7, Knemolic acid C] | – | 7.41 µM | – | – | not active | 7.41 µM | 8 µg/mL (≈ 26.8 µM) | – | – | – | –
CCCCCCCCCc1cccc(O)c1C(=O)O [Compound 8, Khookerianic acid A] | – | 2.47 µM | – | – | not active | 2.47 µM | 8 µg/mL (≈ 30.3 µM) | – | – | – | –
O=C(O)c1c(O)cccc1CCCCCCCCc1ccc2c(c1)OCO2 [Compound 9, Kneglobularic acid B] | – | 7.41 µM | – | – | Not active | 22.2 µM | 8 µg/mL (≈ 21.6 µM) | – | – | – | –
O=C(O)c1c(O)cccc1CCCCCCCCc1ccccc1 [Compound 10, Khookerianic acid C/Kneglobularic acid A] | – | 2.47 µM | – | – | Not active | 2.47 µM | 8 µg/mL (≈ 24.5 µM) | – | – | – | –
CCCCCCCCCCCc1cccc(O)c1C(=O)O [Compound 11, Anagigantic acid] | – | 2.47 µM | – | – | Not active | 2.47 µM | 8 µg/mL (≈ 27.4 µM) | – | – | – | –
CCCCCCCCCCCCCc1cccc(O)c1C(=O)O [Compound 12, 6-Tridecylsalicylic acid] | Not active | 66.7 µM | – | – | Not active | 66.7 µM | – | – | – | – | –
CC(=O)c1ccc(O)cc1O [Compound 13, 2,4-Dihydroxyacetophenone] | not active | 66.7 µM | – | – | not active | – | – | – | not active | – | –
CO[C@H]1/C=C/O[C@@]2(C)Oc3c(C)c(O)c4c(c3C2=O)C2=NC3(CCN(CC(C)C)CC3)NC2=C(NC(=O)/C(C)=C\C=C\[C@H](C)[C@H](O)[C@@H](C)[C@@H](O)[C@@H](C)[C@H](OC(C)=O)[C@@H]1C)C4=O [rifabutin, reference compound] | – | 0.2 µM | – | – | – | – | – | – | not active | 0.03 µM | –
CN[C@H](CC(C)C)C(=O)N[C@H]1C(=O)N[C@@H](CC(N)=O)C(=O)N[C@H]2C(=O)N[C@H]3C(=O)N[C@H](C(=O)N[C@H](C(=O)O)c4cc(O)cc(O)c4-c4cc3ccc4O)[C@H](O)c3ccc(c(Cl)c3)Oc3cc2cc(c3O[C@@H]2O[C@H](CO)[C@@H](O)[C@H](O)[C@H]2O[C@H]2C[C@](C)(N)[C@H](O)[C@H](C)O2)Oc2ccc(cc2Cl)[C@H]1O [vancomycin, reference compound] | – | – | – | – | – | – | – | – | – | – | 1 µg/mL (≈ 0.69 µM)
